Test results as given in ChEMBL document CHEMBL1151840, “Synthetic oligoribonucleotides containing arabinonucleotides act as agonists of TLR7 and 8” (Bioorg Med Chem Lett, 2009).
Active and inactive are the calls of the source. The calls are words filed in the database; no cut-off is given here.

Columns and labels:
[1] = Stability in human serum assessed as full-length compound remaining after 10 mins by anion-exchange HPLC; format: ADME, cell-free; details: read-out: Stability
[2] = molecular target: T1, Toll-like receptor 8 (Homo sapiens) (UniProt Q9NR97); assay: Agonist activity at human TLR8 expressed in HEK293XL cells assessed as NF-kappaB activation after 18 hrs; format: functional, cell-based
T1 sequence (whole entry): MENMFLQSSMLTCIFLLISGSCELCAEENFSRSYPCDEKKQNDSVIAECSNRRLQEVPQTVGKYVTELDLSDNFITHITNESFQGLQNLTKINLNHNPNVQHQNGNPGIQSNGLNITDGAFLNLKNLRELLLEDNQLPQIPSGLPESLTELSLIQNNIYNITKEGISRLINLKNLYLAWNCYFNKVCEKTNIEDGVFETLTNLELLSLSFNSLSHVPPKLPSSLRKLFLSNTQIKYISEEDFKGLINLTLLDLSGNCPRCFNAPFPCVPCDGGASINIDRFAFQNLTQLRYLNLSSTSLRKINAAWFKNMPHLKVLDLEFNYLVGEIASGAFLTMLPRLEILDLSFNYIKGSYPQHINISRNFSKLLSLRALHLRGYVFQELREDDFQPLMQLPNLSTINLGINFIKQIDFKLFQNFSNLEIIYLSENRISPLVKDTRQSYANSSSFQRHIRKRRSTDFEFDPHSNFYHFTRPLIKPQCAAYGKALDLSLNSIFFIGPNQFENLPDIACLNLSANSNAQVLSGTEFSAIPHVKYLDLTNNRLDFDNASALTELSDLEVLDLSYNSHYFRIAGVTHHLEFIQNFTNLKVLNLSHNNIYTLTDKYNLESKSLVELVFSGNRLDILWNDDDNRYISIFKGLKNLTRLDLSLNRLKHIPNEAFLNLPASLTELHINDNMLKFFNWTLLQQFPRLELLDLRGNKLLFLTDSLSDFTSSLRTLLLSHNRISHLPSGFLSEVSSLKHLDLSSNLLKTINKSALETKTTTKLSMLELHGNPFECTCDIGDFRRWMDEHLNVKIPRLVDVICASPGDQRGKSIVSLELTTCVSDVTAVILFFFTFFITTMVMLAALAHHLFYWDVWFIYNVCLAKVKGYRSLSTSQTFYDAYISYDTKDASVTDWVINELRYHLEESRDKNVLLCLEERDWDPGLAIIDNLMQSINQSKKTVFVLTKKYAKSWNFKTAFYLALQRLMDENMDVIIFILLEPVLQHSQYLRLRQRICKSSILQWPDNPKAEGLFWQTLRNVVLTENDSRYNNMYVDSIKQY

[3] = molecular target: T2, Toll-like receptor 7 (Homo sapiens) (UniProt Q9NYK1); assay: Agonist activity at human TLR7 expressed in HEK293XL cells assessed as NF-kappaB activation after 18 hrs; format: functional, cell-based
T2 sequence (whole entry): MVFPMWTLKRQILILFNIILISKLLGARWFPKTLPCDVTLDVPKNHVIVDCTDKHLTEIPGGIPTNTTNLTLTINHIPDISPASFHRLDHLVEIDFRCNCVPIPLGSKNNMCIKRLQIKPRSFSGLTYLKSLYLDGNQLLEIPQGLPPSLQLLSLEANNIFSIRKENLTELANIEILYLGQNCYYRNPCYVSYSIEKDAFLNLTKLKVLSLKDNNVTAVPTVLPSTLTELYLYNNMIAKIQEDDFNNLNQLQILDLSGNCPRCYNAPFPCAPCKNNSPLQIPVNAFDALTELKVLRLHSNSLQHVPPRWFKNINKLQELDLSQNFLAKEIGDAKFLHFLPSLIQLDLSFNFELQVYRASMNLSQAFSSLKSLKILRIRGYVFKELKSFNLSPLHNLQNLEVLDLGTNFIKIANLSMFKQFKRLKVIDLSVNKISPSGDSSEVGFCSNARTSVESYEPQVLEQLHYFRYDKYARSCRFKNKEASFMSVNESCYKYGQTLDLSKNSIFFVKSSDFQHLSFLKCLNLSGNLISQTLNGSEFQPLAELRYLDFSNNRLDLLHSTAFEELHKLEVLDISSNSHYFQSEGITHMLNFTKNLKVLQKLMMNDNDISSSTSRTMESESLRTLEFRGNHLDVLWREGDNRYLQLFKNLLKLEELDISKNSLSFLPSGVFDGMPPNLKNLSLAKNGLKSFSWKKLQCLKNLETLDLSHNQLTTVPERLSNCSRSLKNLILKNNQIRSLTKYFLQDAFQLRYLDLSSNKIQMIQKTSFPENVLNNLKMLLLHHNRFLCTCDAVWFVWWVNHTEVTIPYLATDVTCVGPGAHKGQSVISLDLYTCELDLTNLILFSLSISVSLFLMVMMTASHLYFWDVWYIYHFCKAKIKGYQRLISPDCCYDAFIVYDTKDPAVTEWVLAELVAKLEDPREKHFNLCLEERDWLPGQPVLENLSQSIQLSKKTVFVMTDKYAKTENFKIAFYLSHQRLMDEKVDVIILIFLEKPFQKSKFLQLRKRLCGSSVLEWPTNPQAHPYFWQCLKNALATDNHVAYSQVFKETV

PBMC [4] = assay: Stimulation of immune response in human PBMC assessed as induction of IL1-beta production at 150 ug/ml after 24 hrs; format: functional, cell-based
PBMC [5] = assay: Stimulation of immune response in human PBMC assessed as induction of IL2R level at 150 ug/ml after 24 hrs; format: functional, cell-based
PBMC [6] = assay: Stimulation of immune response in human PBMC assessed as induction of IL8 production at 150 ug/ml after 24 hrs; format: functional, cell-based
PBMC [7] = assay: Stimulation of immune response in human PBMC assessed as induction of IL10 production at 150 ug/ml after 24 hrs; format: functional, cell-based
PBMC [8] = assay: Stimulation of immune response in human PBMC assessed as induction of IL12 production at 150 ug/ml after 24 hrs; format: functional, cell-based
PBMC [9] = assay: Stimulation of immune response in human PBMC assessed as induction of IFNalpha production at 150 ug/ml after 24 hrs; format: functional, cell-based
PBMC [10] = assay: Stimulation of immune response in human PBMC assessed as induction of IFN-gamma production at 150 ug/ml after 24 hrs; format: functional, cell-based
PBMC [11] = assay: Stimulation of immune response in human PBMC assessed as induction of MCP1 production at 150 ug/ml after 24 hrs; format: functional, cell-based
PBMC [12] = assay: Stimulation of immune response in human PBMC assessed as induction of RANTES production at 150 ug/ml after 24 hrs; format: functional, cell-based
PBMC [13] = assay: Stimulation of immune response in human PBMC assessed as induction of MIP1alpha production at 150 ug/ml after 24 hrs; format: functional, cell-based
PBMC [14] = assay: Stimulation of immune response in human PBMC assessed as induction of MIP1beta production at 150 ug/ml after 24 hrs; format: functional, cell-based
PBMC [15] = assay: Stimulation of immune response in human PBMC assessed as induction of TNFalpha production at 150 ug/ml after 24 hrs; format: functional, cell-based
Homo sapiens [16] = organism: Homo sapiens; assay: Stimulation of immune response in human pDC assessed as induction of IFN-gamma production at 150 ug/ml after 24 hrs; format: functional
Homo sapiens [17] = organism: Homo sapiens; assay: Stimulation of immune response in human pDC assessed as induction of IFNalpha production at 150 ug/ml after 24 hrs; format: functional
Homo sapiens [18] = organism: Homo sapiens; assay: Stimulation of immune response in human pDC assessed as induction of IL12 production at 150 ug/ml after 24 hrs; format: functional
Homo sapiens [19] = organism: Homo sapiens; assay: Stimulation of immune response in human pDC assessed as induction of TNFalpha production at 150 ug/ml after 24 hrs; format: functional
Homo sapiens [20] = organism: Homo sapiens; assay: Stimulation of immune response in human pDC assessed as induction of MIP1alpha production at 150 ug/ml after 24 hrs; format: functional
Homo sapiens [21] = organism: Homo sapiens; assay: Stimulation of immune response in human pDC assessed as induction of MIP1beta production at 150 ug/ml after 24 hrs; format: functional
Mus musculus = assay: Stimulation of immune response in C57BL/6 mouse assessed as induction of serum IL12 production at 50 mg/kg, sc after 2 hrs by luminex multiplex assay; format: functional, organism-based; set-up: dose 50 mg/kg

Work on `Nc1ccn([C@@H]2O[C@H](COP(=O)(S)O[C@H]3[C@@H](O)[C@H](n4cnc5c(N)ncnc54)O[C@@H]3COP(=O)(S)O[C@H]3[C@@H](O)[C@H](n4cnc5c(=O)[nH]c(N)nc54)O[C@@H]3COP(=O)(S)O[C@H]3[C@@H](O)[C@H](n4ccc(=O)[nH]c4=O)O[C@@H]3COP(=O)(S)O[C@H]3[C@@H](O)[C@H](n4cnc5c(=O)[nH]c(N)nc54)O[C@@H]3COP(=O)(S)O[C@H]3[C@@H](O)[C@H](n4ccc(=O)[nH]c4=O)O[C@@H]3COP(=O)(S)O[C@H]3[C@@H](O)[C@H](n4cnc5c(=O)[nH]c(N)nc54)O[C@@H]3COP(=O)(S)O[C@H]3[C@@H](O)[C@H](n4ccc(=O)[nH]c4=O)O[C@@H]3COP(=O)(S)O[C@H]3[C@@H](O)[C@H](n4ccc(=O)[nH]c4=O)O[C@@H]3COP(=O)(S)O[C@H]3[C@@H](O)[C@H](n4cnc5c(=O)[nH]c(N)nc54)O[C@@H]3COP(=O)(S)O[C@H]3[C@@H](O)[C@H](n4ccc(=O)[nH]c4=O)O[C@H]3CO)[C@@H](OP(=O)(S)OCC(O)COP(=O)(S)O[C@H]3[C@@H](O)[C@H](n4ccc(N)nc4=O)O[C@@H]3COP(=O)(S)O[C@H]3[C@@H](O)[C@H](n4cnc5c(N)ncnc54)O[C@@H]3COP(=O)(S)O[C@H]3[C@@H](O)[C@H](n4cnc5c(=O)[nH]c(N)nc54)O[C@@H]3COP(=O)(S)O[C@H]3[C@@H](O)[C@H](n4ccc(=O)[nH]c4=O)O[C@@H]3COP(=O)(S)O[C@H]3[C@@H](O)[C@H](n4cnc5c(=O)[nH]c(N)nc54)O[C@@H]3COP(=O)(S)O[C@H]3[C@@H](O)[C@H](n4ccc(=O)[nH]c4=O)O[C@@H]3COP(=O)(S)O[C@H]3[C@@H](O)[C@H](n4cnc5c(=O)[nH]c(N)nc54)O[C@@H]3COP(=O)(S)O[C@H]3[C@@H](O)[C@H](n4ccc(=O)[nH]c4=O)O[C@@H]3COP(=O)(S)O[C@H]3[C@@H](O)[C@H](n4ccc(=O)[nH]c4=O)O[C@@H]3COP(=O)(S)O[C@H]3[C@@H](O)[C@H](n4cnc5c(=O)[nH]c(N)nc54)O[C@@H]3COP(=O)(S)O[C@H]3[C@@H](O)[C@H](n4ccc(=O)[nH]c4=O)O[C@@H]3CO)[C@H]2O)c(=O)n1` (stereo in doubt; 6) yielded a remaining at 10 min [1] of 76%.

With `Nc1ccn([C@@H]2O[C@H](COP(=O)(S)O[C@H]3[C@@H](O)[C@H](n4cnc5c(N)ncnc54)O[C@@H]3COP(=O)(S)O[C@H]3[C@@H](O)[C@H](n4cnc5c(=O)[nH]c(N)nc54)O[C@@H]3COP(=O)(S)O[C@H]3[C@@H](O)[C@H](n4ccc(=O)[nH]c4=O)O[C@@H]3COP(=O)(S)O[C@H]3[C@@H](O)[C@H](n4cnc5c(=O)[nH]c(N)nc54)O[C@@H]3COP(=O)(S)O[C@H]3[C@@H](O)[C@H](n4ccc(=O)[nH]c4=O)O[C@@H]3COP(=O)(S)O[C@H]3[C@@H](O)[C@H](n4cnc5c(=O)[nH]c(N)nc54)O[C@@H]3COP(=O)(S)O[C@H]3[C@@H](O)[C@H](n4ccc(=O)[nH]c4=O)O[C@@H]3COP(=O)(S)O[C@H]3[C@@H](O)[C@H](n4ccc(=O)[nH]c4=O)O[C@@H]3COP(=O)(S)O[C@H]3[C@@H](O)[C@H](n4cnc5c(=O)[nH]c(N)nc54)O[C@@H]3COP(=O)(S)O[C@H]3[C@@H](O)[C@H](n4ccc(=O)[nH]c4=O)O[C@H]3CO)[C@@H](OP(=O)(S)OCC(O)COP(=O)(S)O[C@H]3[C@@H](O)[C@H](n4ccc(N)nc4=O)O[C@@H]3COP(=O)(S)O[C@H]3[C@@H](O)[C@H](n4cnc5c(N)ncnc54)O[C@@H]3COP(=O)(S)O[C@H]3[C@@H](O)[C@H](n4cnc5c(=O)[nH]c(N)nc54)O[C@@H]3COP(=O)(S)O[C@H]3[C@@H](O)[C@H](n4ccc(=O)[nH]c4=O)O[C@@H]3COP(=O)(S)O[C@H]3[C@@H](O)[C@H](n4cnc5c(=O)[nH]c(N)nc54)O[C@@H]3COP(=O)(S)O[C@H]3[C@@H](O)[C@H](n4ccc(=O)[nH]c4=O)O[C@@H]3COP(=O)(S)O[C@H]3[C@@H](O)[C@H](n4cnc5c(=O)[nH]c(N)nc54)O[C@@H]3COP(=O)(S)O[C@H]3[C@@H](O)[C@H](n4ccc(=O)[nH]c4=O)O[C@@H]3COP(=O)(S)O[C@H]3[C@@H](O)[C@H](n4ccc(=O)[nH]c4=O)O[C@@H]3COP(=O)(S)O[C@H]3[C@@H](O)[C@H](n4cnc5c(=O)[nH]c(N)nc54)O[C@@H]3COP(=O)(S)O[C@H]3[C@@H](O)[C@H](n4ccc(=O)[nH]c4=O)O[C@@H]3CO)[C@H]2O)c(=O)n1` (stereo in doubt; 5) the Activity [2] was “Dose-dependent effect”, the Activity [3] was “inactive” and the Activity (PBMC [4]) was “Active”. The Activity (PBMC [5]) was “Active”, the Activity (PBMC [6]) was “Active” and the Activity (PBMC [7]) was “Active”. For the same compound, the Activity (PBMC [8]) was “Active”, the Activity (PBMC [9]) was “Active” and the Activity (PBMC [10]) was “Active”. For the same compound, the Activity (PBMC [11]) was “Active”, the Activity (PBMC [12]) was “Active” and the Activity (PBMC [13]) was “Active”. The Activity (PBMC [14]) was “Active”, the Activity (PBMC [15]) was “Active” and the Activity (Homo sapiens [16]) was “Active”. For the same compound, the Activity (Homo sapiens [17]) was “inactive”, the Activity (Homo sapiens [18]) was “Active” and the Activity (Homo sapiens [19]) was “Active”. The Activity (Homo sapiens [20]) was “Active”, the Activity (Homo sapiens [21]) was “Active” and the Activity (Mus musculus) was “inactive”.
